Data published in paper PMC7356589, “Hybrid Gold(I) NHC-Artemether Complexes to Target Falciparum Malaria Parasites” (Molecules, 2020).
Like-named read-outs stand apart in the source and are kept apart here.

Tests used:
[1] = tested on: P. falciparum strain F32-TEM (F32-Tanzania); assay: In vitro antiplasmodial activity (SYBR Green fluorescence and [3H] hypoxanthine assays); assay type: cell-based, Plasmodium falciparum
Experimental: In vitro antiplasmodial activities of the synthesized hybrid molecules were evaluated against the P. falciparum strain F32-TEM (corresponding to the parental strain F32-Tanzania). Each molecule was tested at least in three independent experiments (except Aubis(5-Bn), tested twice) by a SYBR Green Fluorescence assay but also at least once with the standard chemosensitivity assay recommended by the WHO and based on the incorporation of [^3H] hypoxanthine.
For the SYBR Green Fluorescence assay, ring stage parasites were treated with the drugs for 48 h. Then, the pellets were washed twice with PBS and frozen at −20 °C. Thawed plates were incubated for 2 h at room temperature with the SYBR Green (Thermo-Fisher, Illkirch, France) lysis buffer (20 mm Tris base pH 7.5, 5 mm EDTA, 0.008% w/v saponin, 0.08% w/v Triton X-100). The plates were then read using a fluorescence plate reader (FLx800, BioTek, Illkirch, France) at an excitation wavelength of 485 nm and 535 nm for the emission wavelength. The IC50 values (concentration inhibiting 50% of the parasite’s growth) were determined using GraphPad Prism software 7 (GraphPad Software, San Diego, CA, USA).
For [^3H] hypoxanthine assay, ring stage parasites were incubated with the drug dilutions for 24 h, then, [^3H] hypoxanthine (50 μL/0.25 μCi; Perkin-Elmer, Courtaboeuf, France) was added for another 24 h period. After that, plates were frozen at −20 °C. The next step is to thaw the plates and to collect the nucleic acids. Tritium incorporation was then determined thanks to a β-counter (Perkin-Elmer, Courtaboeuf, France).
The antiplasmodial activities reported in Table 1 correspond thus to the mean of IC50 values from at least 4 independent experiments acquired by the two methods, SYBR Green and radioactivity.

Vero cell line = assay: Cytotoxicity on Vero cells (MTT); assay type: cell-based, monkey; settings: for IC50: Vero cells, 48 h, MTT, read-out: Cytotoxicity on Vero Cells IC50 ± SEM
Experimental: The cells were cultured in MEM medium (Dutscher, Brumath, France) supplemented with 10% fetal bovine serum (Dutscher), 0.7 mM glutamine and 100 μg/mL gentamicin. The cells were seeded at 10^4 cells per well in a 96-well plates and incubated during 24 h. Then, cells were incubated for additional 48 h with the drugs. […] Subsequently, DMSO was added to the wells containing the cells and MTT to dissolve the formed crystals. The plates were then read to determine the absorbance at wavelength of 540 nm (µQuant, BioTek, Illkirch, France). Cell proliferation was calculated from at least three independent experiments using GraphPad Prism software 7 (GraphPad Software, San Diego, CA, USA). The cytotoxic/antiplasmodial activity ratio corresponds to the selectivity index.

[2] = Plasmodium falciparum, F32, 48 h, strain F32-Tanzania (F32-TEM), mean of at least 4 experiments, SYBR Green and radioactivity assays, read-out: Antiplasmodial Activity on P. falciparum IC50 ± SEM
[3] = strain F32-Tanzania (F32-TEM), mean of at least 4 experiments, SYBR Green and radioactivity assays, 48 h, read-out: Antiplasmodial Activity on P. falciparum IC50 ± SEM

SMILES | IC50 [1, 2] [nM] | IC50 [1, 3] [nM] | IC50 (Vero cell line) [nM] | other results
C[C@@H]1CCC2[C@@H](C)[C@@H](OCCCCn3cc[n+](C)c3)O[C@@H]3O[C@@]4(C)CCC1[C@@]23OO4 (stereo partly drawn) [L4-Me, 3′-methyl-1′-[10β-(21-butoxy)-dihydroartemisinin]1H-imidazol-3-ium bromide] | 840 ± 64 |  |  | 
Cc1cc(C)c(-[n+]2ccn(CCCCO[C@H]3O[C@@H]4O[C@@]5(C)CCC6[C@H](C)CCC([C@H]3C)[C@]64OO5)[c]2[Au-][c]2n(CCCCO[C@H]3O[C@@H]4O[C@@]5(C)CCC6[C@H](C)CCC([C@H]3C)[C@]64OO5)cc[n+]2-c2c(C)cc(C)cc2C)c(C)c1.[Cl-] (some centres unmarked) [Aubis(4-Mes)] |  | 38 ± 3 | 700 | 
C[C@@H]1CCC2[C@@H](C)[C@@H](OCCCCn3cc[n+](-c4ccc5ccccc5n4)c3)O[C@@H]3O[C@@]4(C)CCC1[C@@]23OO4 (stereo partly drawn) [L4-Quin, 3′-Quinolin-2-yl-1′-[10β-(21-butoxy)dihydroartemisinin]1H-imidazol-3-ium bromide] | 330 ± 37 |  |  | 
CC(C)[n+]1ccn(CCCO[C@H]2O[C@@H]3O[C@@]4(C)CCC5[C@H](C)CCC([C@H]2C)[C@]53OO4)[c]1[Au-][c]1n(CCCO[C@H]2O[C@@H]3O[C@@]4(C)CCC5[C@H](C)CCC([C@H]2C)[C@]53OO4)cc[n+]1C(C)C.[Cl-] (some centres unmarked) [Aubis(3-iPr)] |  | 13 ± 5 | 700 | 
CC(C)[n+]1ccn(CCCO[C@H]2O[C@@H]3O[C@@]4(C)CCC5[C@H](C)CCC([C@H]2C)[C@]53OO4)c1 (stereo partly drawn) [L3-iPr, 3′-Isopropyl-1′-[10β-(20-propoxy)dihydroartemisinin]1H-imidazol-3-ium bromide] | 335 ± 28 |  |  | 
C[C@@H]1CCC2[C@@H](C)[C@@H](OCCCCn3cc[n+](Cc4ccccc4)[c]3[Au-][c]3n(CCCCO[C@H]4O[C@@H]5O[C@@]6(C)CCC7[C@H](C)CCC([C@H]4C)[C@]75OO6)cc[n+]3Cc3ccccc3)O[C@@H]3O[C@@]4(C)CCC1[C@@]23OO4.[Cl-] (some centres unmarked) [Aubis(4-Bn)] |  | 40 ± 21 | 700 | 
CC(=O)OC[C@H]1O[C@@H]([S-])[C@H](OC(C)=O)[C@@H](OC(C)=O)[C@@H]1OC(C)=O.CCP(CC)CC.[Au+] [Auranofin, reference compound] |  | 1500 |  | 
Cc1cc(C)c(-[n+]2ccn(CCCO[C@H]3O[C@@H]4O[C@@]5(C)CCC6[C@H](C)CCC([C@H]3C)[C@]64OO5)c2)c(C)c1 (stereo partly drawn) [L3-Mes, 3′-Mesityl-1′-[10β-(20-propoxy)dihydroartemisinin]1H-imidazol-3-ium bromide] | 655 ± 53 |  |  | 
C[C@@H]1CCC2[C@@H](C)[C@@H](OCCCn3cc[n+](C)c3)O[C@@H]3O[C@@]4(C)CCC1[C@@]23OO4 (stereo partly drawn) [L3-Me, 3′-methyl-1′-[10β-(20-propoxy)-dihydroartemisinin]1H-imidazol-3-ium bromide] | 935 ± 117 |  |  | 
C[C@@H]1CCC2[C@@H](C)[C@@H](OCCCCCn3cc[n+](C)c3)O[C@@H]3O[C@@]4(C)CCC1[C@@]23OO4 (stereo partly drawn) [L5-Me, 3′-methyl-1′-[10β-(22-pentoxy)-dihydroartemisinin]1H-imidazol-3-ium bromide] | 172 ± 22 |  |  | 
Cc1cc(C)c(-[n+]2ccn(CCCO[C@H]3O[C@@H]4O[C@@]5(C)CCC6[C@H](C)CCC([C@H]3C)[C@]64OO5)[c]2[Au-][c]2n(CCCO[C@H]3O[C@@H]4O[C@@]5(C)CCC6[C@H](C)CCC([C@H]3C)[C@]64OO5)cc[n+]2-c2c(C)cc(C)cc2C)c(C)c1.[Cl-] (some centres unmarked) [Aubis(3-Mes)] |  | 61 ± 37 | 500 | 
C[C@@H]1CCC2[C@@H](C)[C@@H](OCCCn3cc[n+](-c4ccc5ccccc5n4)[c]3[Au-][c]3n(CCCO[C@H]4O[C@@H]5O[C@@]6(C)CCC7[C@H](C)CCC([C@H]4C)[C@]75OO6)cc[n+]3-c3ccc4ccccc4n3)O[C@@H]3O[C@@]4(C)CCC1[C@@]23OO4.[Cl-] (some centres unmarked) [Aubis(3-Quin)] |  | 23 ± 8 | 1200 | 
Cc1cc(C)c(-[n+]2ccn(CCCCO[C@H]3O[C@@H]4O[C@@]5(C)CCC6[C@H](C)CCC([C@H]3C)[C@]64OO5)c2)c(C)c1 (stereo partly drawn) [L4-Mes, 3′-Mesityl-1′-[10β-(21-butoxy)dihydroartemisinin]1H-imidazol-3-ium bromide] | 219 ± 18 |  |  | 
C[C@@H]1CCC2[C@@H](C)[C@@H](OCCCCn3cc[n+](-c4ccc5ccccc5n4)[c]3[Au-][c]3n(CCCCO[C@H]4O[C@@H]5O[C@@]6(C)CCC7[C@H](C)CCC([C@H]4C)[C@]75OO6)cc[n+]3-c3ccc4ccccc4n3)O[C@@H]3O[C@@]4(C)CCC1[C@@]23OO4.[Cl-] (some centres unmarked) [Aubis(4-Quin)] |  | 83 ± 31 |  | 
C[C@@H]1CCC2[C@@H](C)[C@@H](OCCCCCn3cc[n+](-c4ccc5ccccc5n4)[c]3[Au-][c]3n(CCCCCO[C@H]4O[C@@H]5O[C@@]6(C)CCC7[C@H](C)CCC([C@H]4C)[C@]75OO6)cc[n+]3-c3ccc4ccccc4n3)O[C@@H]3O[C@@]4(C)CCC1[C@@]23OO4.[Cl-] (some centres unmarked) [Aubis(5-Quin)] |  | 38 ± 9 | 2000 | 
CO[C@H]1O[C@@H]2O[C@@]3(C)CC[C@H]4[C@H](C)CC[C@@H]([C@H]1C)[C@@]24OO3 [Artemether] |  |  |  | IC50 ([1]; Plasmodium falciparum, F32, 48 h, read-out: Antiplasmodial Activity on P. falciparum IC50 ± SEM, strain F32-Tanzania (F32-TEM), mean of at least 4 experiments, SYBR Green and radioactivity assays): 6.1 ± 1 nM; Selectivity Index Vero Cells/P. falciparum (Vero cell line; cytotoxic/antiplasmodial activity ratio): 35 000
C[C@@H]1CCC2[C@@H](C)[C@@H](OCCCCCn3cc[n+](Cc4ccccc4)[c]3[Au-][c]3n(CCCCCO[C@H]4O[C@@H]5O[C@@]6(C)CCC7[C@H](C)CCC([C@H]4C)[C@]75OO6)cc[n+]3Cc3ccccc3)O[C@@H]3O[C@@]4(C)CCC1[C@@]23OO4.[Cl-] (some centres unmarked) [Aubis(5-Bn)] |  | 72 ± 14 | 600 | 
C[C@@H]1CCC2[C@@H](C)[C@@H](OCCCCCn3cc[n+](-c4ccc5ccccc5n4)c3)O[C@@H]3O[C@@]4(C)CCC1[C@@]23OO4 (stereo partly drawn) [L5-Quin, 3′-Quinolin-2-yl-1′-[10β-(22-pentoxy)dihydroartemisinin]1H-imidazol-3-ium bromide] | 226 ± 29 |  |  | 
C[C@@H]1CCC2[C@@H](C)[C@@H](OCCCCn3cc[n+](Cc4ccccc4)c3)O[C@@H]3O[C@@]4(C)CCC1[C@@]23OO4 (stereo partly drawn) [L4-Bn, 3′-Benzyl-1′-[10β-(21-butoxy)dihydroartemisinin]1H-imidazol-3-ium bromide] | 326 ± 44 |  |  | 
Cc1cc(C)c(-[n+]2ccn(CCCCCO[C@H]3O[C@@H]4O[C@@]5(C)CCC6[C@H](C)CCC([C@H]3C)[C@]64OO5)[c]2[Au-][c]2n(CCCCCO[C@H]3O[C@@H]4O[C@@]5(C)CCC6[C@H](C)CCC([C@H]3C)[C@]64OO5)cc[n+]2-c2c(C)cc(C)cc2C)c(C)c1.[Cl-] (some centres unmarked) [Aubis(5-Mes)] |  | 100 ± 12 |  | 
C[C@@H]1CCC2[C@@H](C)[C@@H](OCCCn3cc[n+](Cc4ccccc4)[c]3[Au-][c]3n(CCCO[C@H]4O[C@@H]5O[C@@]6(C)CCC7[C@H](C)CCC([C@H]4C)[C@]75OO6)cc[n+]3Cc3ccccc3)O[C@@H]3O[C@@]4(C)CCC1[C@@]23OO4.[Cl-] (some centres unmarked) [Aubis(3-Bn)] |  | 22 ± 3 | 300 | 
C[C@@H]1CCC2[C@@H](C)[C@@H](OCCCn3cc[n+](-c4ccc5ccccc5n4)c3)O[C@@H]3O[C@@]4(C)CCC1[C@@]23OO4 (stereo partly drawn) [L3-Quin, 3′-Quinolin-2-yl-1′-[10β-(20-propoxy)dihydroartemisinin]1H-imidazol-3-ium bromide] | 330 ± 69 |  |  | 
C[C@@H]1CCC2[C@@H](C)[C@@H](OCCCn3cc[n+](Cc4ccccc4)c3)O[C@@H]3O[C@@]4(C)CCC1[C@@]23OO4 (stereo partly drawn) [L3-Bn, 3′-Benzyl-1′-[10β-(20-propoxy)dihydroartemisinin]1H-imidazol-3-ium bromide] | 351 ± 56 |  |  | 
